Tested on: Dnmt3a^WT cells
Assay: RNA-sequencing of HSPCs treated in vitro with ADP-heptose or H2O for 90 minutes
Assay type: cell-based, mouse

Nc1ncnc2c1ncn2[C@@H]1O[C@H](COP(=O)(O)OP(=O)(O)O[C@@H]2O[C@H]([C@H](O)CO)[C@@H](O)[C@H](O)[C@@H]2O)[C@@H](O)[C@H]1O [ADP-heptose, ADP-D-glycero-β-D-manno-heptose]
logFC 2900005J15Rik (Dnmt3a^WT cells, vs H2O): 0.6052
logFC AI607873 (Dnmt3a^WT cells, vs H2O): 0.6683
logFC Abca1 (Dnmt3a^WT cells, vs H2O): −0.707
logFC Acsbg1 (Dnmt3a^WT cells, vs H2O): 0.5944
logFC Adgrg6 (Dnmt3a^WT cells, vs H2O): −0.645
logFC Akap12 (Dnmt3a^WT cells, vs H2O): −1.955
logFC Akr1c18 (Dnmt3a^WT cells, vs H2O): 0.7051
logFC Alpk2 (Dnmt3a^WT cells, vs H2O): 1.196
logFC Aoc1 (Dnmt3a^WT cells, vs H2O): 2.048
logFC Arg1 (Dnmt3a^WT cells, vs H2O): 0.7872
logFC Arl5c (Dnmt3a^WT cells, vs H2O): −0.704
logFC Arntl (Dnmt3a^WT cells, vs H2O): −0.87
logFC Asb2 (Dnmt3a^WT cells, vs H2O): 1.407
logFC Atoh8 (Dnmt3a^WT cells, vs H2O): 0.7783
logFC Azin2 (Dnmt3a^WT cells, vs H2O): 0.6183
logFC B3galt5 (Dnmt3a^WT cells, vs H2O): 0.9015
logFC Bach2 (Dnmt3a^WT cells, vs H2O): −0.675
logFC Bcl2a1b (Dnmt3a^WT cells, vs H2O): 0.925
logFC Bcl2a1d (Dnmt3a^WT cells, vs H2O): 0.6551
logFC Bhlha15 (Dnmt3a^WT cells, vs H2O): −0.596
logFC Blk (Dnmt3a^WT cells, vs H2O): −1.578
logFC Blnk (Dnmt3a^WT cells, vs H2O): −1.446
logFC Cacna1f (Dnmt3a^WT cells, vs H2O): 0.7515
logFC Ccdc63 (Dnmt3a^WT cells, vs H2O): −0.697
logFC Ccdc85c (Dnmt3a^WT cells, vs H2O): 0.7217
logFC Ccl5 (Dnmt3a^WT cells, vs H2O): 1.104
logFC Ccl17 (Dnmt3a^WT cells, vs H2O): 2.045
logFC Ccl22 (Dnmt3a^WT cells, vs H2O): 0.7001
logFC Ccl24 (Dnmt3a^WT cells, vs H2O): 1.365
logFC Cd19 (Dnmt3a^WT cells, vs H2O): −1.847
logFC Cd40 (Dnmt3a^WT cells, vs H2O): 0.6226
logFC Cd74 (Dnmt3a^WT cells, vs H2O): 0.82
logFC Cd79a (Dnmt3a^WT cells, vs H2O): −1.818
logFC Cd83 (Dnmt3a^WT cells, vs H2O): 1.204
logFC Cecr2 (Dnmt3a^WT cells, vs H2O): −1.929
logFC Chst3 (Dnmt3a^WT cells, vs H2O): −1.597
logFC Cmpk2 (Dnmt3a^WT cells, vs H2O): 0.7001
logFC Cplx2 (Dnmt3a^WT cells, vs H2O): −1.36
logFC Cx3cl1 (Dnmt3a^WT cells, vs H2O): 0.9782
logFC Cxc12 (Dnmt3a^WT cells, vs H2O): −1.129
logFC Cxcl3 (Dnmt3a^WT cells, vs H2O): −0.91
logFC Cyp4f17 (Dnmt3a^WT cells, vs H2O): 0.6547
logFC Dact3 (Dnmt3a^WT cells, vs H2O): 0.6573
logFC Dcstamp (Dnmt3a^WT cells, vs H2O): 0.6406
logFC Ddx60 (Dnmt3a^WT cells, vs H2O): 0.7796
logFC Dhx58 (Dnmt3a^WT cells, vs H2O): 0.8261
logFC Dntt (Dnmt3a^WT cells, vs H2O): −2.827
logFC Dock9 (Dnmt3a^WT cells, vs H2O): −0.589
logFC Dsp (Dnmt3a^WT cells, vs H2O): −0.701
logFC Ebf1 (Dnmt3a^WT cells, vs H2O): −2.106
logFC Ednrb (Dnmt3a^WT cells, vs H2O): −0.653
logFC Efnb2 (Dnmt3a^WT cells, vs H2O): 0.9402
logFC Egr3 (Dnmt3a^WT cells, vs H2O): 0.785
logFC Eno2 (Dnmt3a^WT cells, vs H2O): 0.6638
logFC Epsti1 (Dnmt3a^WT cells, vs H2O): 0.6192
logFC Fam129c (Dnmt3a^WT cells, vs H2O): −0.677
logFC Fam132b (Dnmt3a^WT cells, vs H2O): −0.657
logFC Fktn (Dnmt3a^WT cells, vs H2O): −0.609
logFC Gimap8 (Dnmt3a^WT cells, vs H2O): 0.7417
logFC Gm13152 (Dnmt3a^WT cells, vs H2O): −0.827
logFC Gpr27 (Dnmt3a^WT cells, vs H2O): 0.7663
logFC Grap (Dnmt3a^WT cells, vs H2O): 0.7694
logFC Grasp (Dnmt3a^WT cells, vs H2O): 0.5879
logFC Grin2c (Dnmt3a^WT cells, vs H2O): 0.9953
logFC Grtp1 (Dnmt3a^WT cells, vs H2O): −0.628
logFC Gstt1 (Dnmt3a^WT cells, vs H2O): 1.055
logFC Gzmc (Dnmt3a^WT cells, vs H2O): 2.215
logFC H2-Aa (Dnmt3a^WT cells, vs H2O): 0.9618
logFC H2-Ab1 (Dnmt3a^WT cells, vs H2O): 0.9351
logFC H2-DMb2 (Dnmt3a^WT cells, vs H2O): 0.7028
logFC H2-Eb1 (Dnmt3a^WT cells, vs H2O): 1.049
logFC Hgfac (Dnmt3a^WT cells, vs H2O): 0.647
logFC Hist1h2bj (Dnmt3a^WT cells, vs H2O): 1.326
logFC Hist1h3c (Dnmt3a^WT cells, vs H2O): 0.7275
logFC Hist1h3e (Dnmt3a^WT cells, vs H2O): 1.345
logFC Hist1h4d (Dnmt3a^WT cells, vs H2O): 0.8341
logFC Hivep2 (Dnmt3a^WT cells, vs H2O): 0.787
logFC Hivep3 (Dnmt3a^WT cells, vs H2O): −0.682
logFC Hmga1 (Dnmt3a^WT cells, vs H2O): 0.812
logFC Hsh2d (Dnmt3a^WT cells, vs H2O): 0.6798
logFC Htr7 (Dnmt3a^WT cells, vs H2O): 0.9558
logFC I113 (Dnmt3a^WT cells, vs H2O): 1.008
logFC Ifi27l2a (Dnmt3a^WT cells, vs H2O): 0.8565
logFC Ifi44 (Dnmt3a^WT cells, vs H2O): 0.8977
logFC Ifi204 (Dnmt3a^WT cells, vs H2O): 0.7452
logFC Ifit1 (Dnmt3a^WT cells, vs H2O): 1.338
logFC Ifit3 (Dnmt3a^WT cells, vs H2O): 1.739
logFC Ifit3b (Dnmt3a^WT cells, vs H2O): 1.88
logFC Igll1 (Dnmt3a^WT cells, vs H2O): −2.359
logFC Il1a (Dnmt3a^WT cells, vs H2O): −1.749
logFC Il1b (Dnmt3a^WT cells, vs H2O): −1.155
logFC Il6 (Dnmt3a^WT cells, vs H2O): 0.8099
logFC Irf7 (Dnmt3a^WT cells, vs H2O): 1.151
logFC Irg1 (Dnmt3a^WT cells, vs H2O): −0.846
logFC Isg15 (Dnmt3a^WT cells, vs H2O): 1.268
logFC Jakmip1 (Dnmt3a^WT cells, vs H2O): −0.62
logFC Kcnj5 (Dnmt3a^WT cells, vs H2O): −0.586
logFC Kif19a (Dnmt3a^WT cells, vs H2O): −2.028
logFC Klrd1 (Dnmt3a^WT cells, vs H2O): 0.6629
logFC Kynu (Dnmt3a^WT cells, vs H2O): 0.8281
logFC Lad1 (Dnmt3a^WT cells, vs H2O): 1.447
logFC Lax1 (Dnmt3a^WT cells, vs H2O): −1.106
logFC Lef1 (Dnmt3a^WT cells, vs H2O): −1.83
logFC Lgals3bp (Dnmt3a^WT cells, vs H2O): 0.6079
logFC Lrrc32 (Dnmt3a^WT cells, vs H2O): 0.6455
logFC Lrrc51 (Dnmt3a^WT cells, vs H2O): 0.7656
logFC Ltbp4 (Dnmt3a^WT cells, vs H2O): −0.7
logFC Lynx1 (Dnmt3a^WT cells, vs H2O): 0.6016
logFC Mir6236 (Dnmt3a^WT cells, vs H2O): 1.076
logFC Mir6516 (Dnmt3a^WT cells, vs H2O): 0.6089
logFC Mir8112 (Dnmt3a^WT cells, vs H2O): 0.8138
logFC Mmp14 (Dnmt3a^WT cells, vs H2O): −0.771
logFC Mnda (Dnmt3a^WT cells, vs H2O): 0.9121
logFC Mpl (Dnmt3a^WT cells, vs H2O): −0.631
logFC Ms4a4c (Dnmt3a^WT cells, vs H2O): 1.575
logFC Mx1 (Dnmt3a^WT cells, vs H2O): 0.6985
logFC Mx2 (Dnmt3a^WT cells, vs H2O): 1.416
logFC Mzb1 (Dnmt3a^WT cells, vs H2O): −1.509
logFC Nov (Dnmt3a^WT cells, vs H2O): 0.9714
logFC Nr4a3 (Dnmt3a^WT cells, vs H2O): 0.7772
logFC Oas1a (Dnmt3a^WT cells, vs H2O): 0.8999
logFC Oas1b (Dnmt3a^WT cells, vs H2O): 0.8441
logFC Oas1c (Dnmt3a^WT cells, vs H2O): 0.6578
logFC Oas1g (Dnmt3a^WT cells, vs H2O): 1.142
logFC Oas2 (Dnmt3a^WT cells, vs H2O): 0.966
logFC Oas3 (Dnmt3a^WT cells, vs H2O): 0.864
logFC Oasl1 (Dnmt3a^WT cells, vs H2O): 1.088
logFC Oasl2 (Dnmt3a^WT cells, vs H2O): 1.178
logFC Oit3 (Dnmt3a^WT cells, vs H2O): 0.5873
logFC P4htm (Dnmt3a^WT cells, vs H2O): 0.6018
logFC Parp12 (Dnmt3a^WT cells, vs H2O): 0.7346
logFC Pcbd1 (Dnmt3a^WT cells, vs H2O): −0.601
logFC Pcsk9 (Dnmt3a^WT cells, vs H2O): −0.871
logFC Pdgfb (Dnmt3a^WT cells, vs H2O): 0.647
logFC Perp (Dnmt3a^WT cells, vs H2O): 0.6841
logFC Pglyrp2 (Dnmt3a^WT cells, vs H2O): 0.8355
logFC Phf11b (Dnmt3a^WT cells, vs H2O): 1.046
logFC Plcb1 (Dnmt3a^WT cells, vs H2O): 0.628
logFC Plek2 (Dnmt3a^WT cells, vs H2O): 1.111
logFC Pou2af1 (Dnmt3a^WT cells, vs H2O): −1.979
logFC Ppbp (Dnmt3a^WT cells, vs H2O): 0.6175
logFC Procr (Dnmt3a^WT cells, vs H2O): −0.659
logFC Prok2 (Dnmt3a^WT cells, vs H2O): −0.608
logFC Ptch2 (Dnmt3a^WT cells, vs H2O): −0.695
logFC Ptpn 14 (Dnmt3a^WT cells, vs H2O): −1.123
logFC Ptprn (Dnmt3a^WT cells, vs H2O): 0.7392
logFC Rab17 (Dnmt3a^WT cells, vs H2O): −0.755
logFC Rag1 (Dnmt3a^WT cells, vs H2O): −3.551
logFC Ramp3 (Dnmt3a^WT cells, vs H2O): 0.8948
logFC Rbp1 (Dnmt3a^WT cells, vs H2O): −0.727
logFC Rsad2 (Dnmt3a^WT cells, vs H2O): 1.141
logFC Rsph1 (Dnmt3a^WT cells, vs H2O): −0.696
logFC Rtp4 (Dnmt3a^WT cells, vs H2O): 1.478
logFC Scn4b (Dnmt3a^WT cells, vs H2O): −2.647
logFC Sdc3 (Dnmt3a^WT cells, vs H2O): 0.6166
logFC Siglech (Dnmt3a^WT cells, vs H2O): −0.625
logFC Sirpb1b (Dnmt3a^WT cells, vs H2O): −0.633
logFC Slc25a27 (Dnmt3a^WT cells, vs H2O): −0.715
logFC Slc52a3 (Dnmt3a^WT cells, vs H2O): 0.8162
logFC Slfn4 (Dnmt3a^WT cells, vs H2O): 0.7308
logFC Slfn5 (Dnmt3a^WT cells, vs H2O): 1.407
logFC Slfn8 (Dnmt3a^WT cells, vs H2O): 0.8032
logFC Smim8 (Dnmt3a^WT cells, vs H2O): 0.6316
logFC Smpdl3b (Dnmt3a^WT cells, vs H2O): −0.714
logFC Snhg9 (Dnmt3a^WT cells, vs H2O): −0.7
logFC Spry1 (Dnmt3a^WT cells, vs H2O): 0.6924
logFC Srp54b (Dnmt3a^WT cells, vs H2O): 2.042
logFC St6gal1 (Dnmt3a^WT cells, vs H2O): −0.723
logFC Stbd1 (Dnmt3a^WT cells, vs H2O): 0.7931
logFC Tmem51 (Dnmt3a^WT cells, vs H2O): 0.6591
logFC Tnfrsf9 (Dnmt3a^WT cells, vs H2O): 0.982
logFC Tnfrsf11b (Dnmt3a^WT cells, vs H2O): 3.017
logFC Tnni1 (Dnmt3a^WT cells, vs H2O): 3.17
logFC Traf1 (Dnmt3a^WT cells, vs H2O): 0.6999
logFC Tsku (Dnmt3a^WT cells, vs H2O): −0.836
logFC Tspan13 (Dnmt3a^WT cells, vs H2O): −0.592
logFC Tssk6 (Dnmt3a^WT cells, vs H2O): 0.668
logFC Ube2j2 (Dnmt3a^WT cells, vs H2O): 0.8674
logFC Usp18 (Dnmt3a^WT cells, vs H2O): 1.346
logFC Vpreb1 (Dnmt3a^WT cells, vs H2O): −2.268
logFC Vpreb2 (Dnmt3a^WT cells, vs H2O): −2.096
logFC Vpreb3 (Dnmt3a^WT cells, vs H2O): −2.553
logFC Wdr86 (Dnmt3a^WT cells, vs H2O): 1.035
logFC Xaf1 (Dnmt3a^WT cells, vs H2O): 1.054
logFC Zbp1 (Dnmt3a^WT cells, vs H2O): 1.131
logFC Zbtb37 (Dnmt3a^WT cells, vs H2O): −0.702
logFC Zbtb46 (Dnmt3a^WT cells, vs H2O): 1.256
differentially expressed genes (global transcriptomic analysis) (WT HSPCs): few differentially expressed genes

Source: patent publication US20250314644A1, “METHODS COMPRISING DETECTION OF ADP-HEPTOSE” (CHILDREN'S HOSPITAL MEDICAL CENTER, priority 2023, published 2025)
